# Source: ChEMBL document CHEMBL3352675, “Synthetic ω-3 epoxyfatty acids as antiproliferative and pro-apoptotic agents in human breast cancer cells” (2014)
# Active and inactive are the calls of the source. The calls are words filed in the database; no cut-off is given here.
# Key:
# [1] = tested on: MDA-MB-231; experiment: Reduction in ATP production in human MDA-MB-231 cells at 40 uM after 120 hrs relative to untreated control; type: functional, cell-based
# [2] = tested on: MDA-MB-231; experiment: Induction of apoptosis in human MDA-MB-231 cells assessed as increase in caspase 3 activity at 40 uM after 48 hrs; type: functional, cell-based
# [3] = tested on: MDA-MB-231; experiment: Reduction in ATP production in human MDA-MB-231 cells assessed as ATP level at 40 uM after 48 hrs relative to untreated control; type: functional
# [4] = tested on: MDA-MB-231; experiment: Induction of apoptosis in human MDA-MB-231 cells assessed as increase in caspase 3 activity at 40 uM after 48 hrs in presence of JNK inhibitor […]; type: functional, cell-based
# [5] = tested on: T47D; experiment: Antiproliferative activity against human T47D cells assessed as reduction in confluence at 10 uM after 48 hrs by crystal violet staining method; type: functional, cell-based
# [6] = tested on: MDA-MB-231; experiment: Reduction in cell viability in human MDA-MB-231 cells at 1 to 40 uM after 48 to 120 hrs in presence of JNK gene silencing RNA; type: functional, cell-based
# [7] = tested on: MDA-MB-231; experiment: Reduction in ATP production in human MDA-MB-231 cells at 10 uM after 48 to 120 hrs in presence of 10 uM AUDA; type: functional, cell-based
# [8] = tested on: MDA-MB-231; experiment: Antiproliferative activity against human MDA-MB-231 cells assessed as reduction in confluence at 10 uM after 48 hrs by crystal violet staining method; type: functional, cell-based
# [9] = tested on: MDA-MB-231; experiment: Antiproliferative activity against human MDA-MB-231 cells assessed as reduction in confluence at 10 uM measured over 120 hrs by crystal violet staining method; type: functional, cell-based
# [10] = tested on: MDA-MB-231; experiment: Induction of cell cycle arrest in human MDA-MB-231 cells assessed as reduction in cell accumulation at G2/M phase at 40 uM after 48 hrs by flow cytometry; type: functional; details: MDA-MB-231, 48 h
# [11] = tested on: MDA-MB-231; experiment: Induction of apoptosis in human MDA-MB-231 cells assessed as late apoptosis cells level at 40 uM after 48 hrs by Annexin V-FITC and propidium iodide staining method (reference value: 3.7%); type: functional
# [12] = tested on: T47D; experiment: Reduction in ATP production in human T47D cells at 1 to 40 uM after 48 to 120 hrs; type: functional, cell-based
# [13] = tested on: MDA-MB-231; experiment: Induction of cell cycle arrest in human MDA-MB-231 cells assessed as increase in cell accumulation at […] phase at 40 uM after 48 hrs by flow cytometry; type: functional
# [14] = tested on: MDA-MB-468; experiment: Antiproliferative activity against human MDA-MB-468 cells assessed as reduction in confluence at 10 uM after 48 hrs by crystal violet staining method; type: functional, cell-based
# [15] = tested on: MDA-MB-231; experiment: Reduction in cell viability in human MDA-MB-231 cells at 1 to 40 uM after 48 to 120 hrs in presence of JNK inhibitor […]; type: functional, cell-based
# [16] = tested on: MDA-MB-231; experiment: Reduction in cyclin D1 immunoreactive protein expression in human MDA-MB-231 cells assessed as cyclin D1 level at 40 uM after 48 hrs; type: functional; parameters: scale not given: the % may be the effect or the level left
# [17] = tested on: MDA-MB-231; experiment: Induction of apoptosis in human MDA-MB-231 cells assessed as increase in caspase 3 activity at 40 uM after 48 hrs in presence of JNK gene silencing RNA; type: functional, cell-based
# [18] = tested on: MDA-MB-231; experiment: Induction of apoptosis in human MDA-MB-231 cells assessed as viable cells level at 40 uM after 48 hrs by Annexin V-FITC and propidium iodide staining method (reference value: 92.6%); type: functional
# [19] = tested on: MDA-MB-231; experiment: Induction of apoptosis in human MDA-MB-231 cells assessed as necrosis cells level at 40 uM after 48 hrs by Annexin V-FITC and propidium iodide staining method (reference value: 3.3%); type: functional
# [20] = target: c-Jun N-terminal kinase, JNK (Homo sapiens) (UniProt P45983+P53779+P45984); experiment: Induction of JNK phosphorylation in human MDA-MB-231 cells at 40 uM after 48 hrs; type: cell-based
# [21] = tested on: MDA-MB-231; experiment: Induction of cell cycle arrest in human MDA-MB-231 cells assessed as reduction in cell accumulation at S phase at 40 uM after 48 hrs by flow cytometry; type: functional; details: MDA-MB-231, 48 h
# [22] = tested on: MDA-MB-231; experiment: Induction of apoptosis in human MDA-MB-231 cells assessed as early apoptosis cells level at 40 uM after 48 hrs by Annexin V-FITC and propidium iodide staining method (reference value: 0.5 %); type: functional
# [23] = tested on: MDA-MB-231; experiment: Induction of apoptosis in human MDA-MB-231 cells at 40 uM after 48 hrs by Annexin V-FITC and propidium iodide staining method; type: functional
# [24] = tested on: MDA-MB-468; experiment: Reduction in ATP production in human MDA-MB-468 cells at 1 to 40 uM after 48 to 120 hrs; type: functional, cell-based
# [25] = tested on: MDA-MB-231; experiment: Reduction in ATP production in human MDA-MB-231 cells at 20 uM after 48 to 120 hrs in presence of 10 uM AUDA; type: functional, cell-based
# [26] = tested on: MDA-MB-231; experiment: Reduction in ATP production in human MDA-MB-231 cells assessed as ATP level at 40 uM after 120 hrs relative to untreated control; type: functional; parameters: scale not given: the % may be the effect or the level left
# [27] = tested on: T47D; experiment: Antiproliferative activity against human T47D cells assessed as reduction in confluence at 40 uM after 48 hrs by crystal violet staining method; type: functional, cell-based
# [28] = tested on: MDA-MB-468; experiment: Reduction in ATP production in human MDA-MB-468 cells at 40 uM after 48 hrs; type: functional, cell-based
# [29] = tested on: MDA-MB-231; experiment: Antiproliferative activity against human MDA-MB-231 cells assessed as reduction in confluence at 40 uM after 48 hrs by crystal violet staining method; type: functional, cell-based
# [30] = tested on: MDA-MB-231; experiment: Antiproliferative activity against human MDA-MB-231 cells assessed as reduction in confluence at >40 uM after 120 hrs by crystal violet staining method; type: functional, cell-based
# [31] = tested on: T47D; experiment: Reduction in ATP production in human T47D cells at 40 uM after 48 hrs; type: functional, cell-based
# [32] = tested on: MDA-MB-468; experiment: Antiproliferative activity against human MDA-MB-468 cells assessed as reduction in confluence at 40 uM after 48 hrs by crystal violet staining method; type: functional, cell-based
# [33] = tested on: MDA-MB-231; experiment: Reduction in cell viability in human MDA-MB-231 cells at 1 to 40 uM after 48 to 120 hrs; type: functional, cell-based
# [34] = tested on: MDA-MB-231; experiment: Increase in ATP production in human MDA-MB-231 cells at 40 uM after 48 to 120 hrs; type: functional, cell-based
smiles,measurement,setting,value
CCCC(=O)NCCCCCCCCCCCCCCCC(=O)O,Activity,[1],inactive
same,Activity,[2],inactive
CCNC(=O)OCCCCCCCCCCCCCCCC(=O)O,Activity,[1],inactive
same,Activity,[2],Active
CCCNC(=O)NCCCCCCCCCCCCCCCC(=O)O,Activity,[3],inactive
same,Activity,[2],inactive
CC[C@@H]1O[C@@H]1CCCCCCCCCCCCCCCC(=O)O (relative stereo),Activity,[4],inactive
same,inhibition,[5],inactive
same,Activity,[6],inactive
same,Activity,[7],Active
same,inhibition,[8],Active
same,Activity,[3],45%
same,inhibition,[9],Active
same,inhibition at 40 µM,[10],38%
same,Activity,[11],39.2%
same,Activity,[12],Active
same,Activity,[13],22%
same,inhibition,[14],Active
same,Activity,[15],inactive
same,Activity,[16],23%
same,Activity,[17],inactive
same,Activity,[18],27.3%
same,Activity,[19],29.4%
same,Activity,[20],Active
same,inhibition at 40 µM,[21],49%
same,Activity,[22],4.1%
same,fold change (FC),[23],5
same,Activity,[24],Active
same,Activity,[25],inactive
same,Activity,[26],3.2%
same,Activity,[2],Active
CCNC(=O)NCCCCCCCCCCCCCCCCC(=O)O,inhibition,[27],inactive
same,Activity,[28],inactive
same,Activity,[3],72%
same,inhibition,[29],inactive
same,inhibition,[30],Active
same,Activity,[31],inactive
same,inhibition at 40 µM,[10],9%
same,inhibition,[32],inactive
same,Activity,[13],6%
same,Activity,[16],inactive
same,Activity,[20],inactive
same,inhibition at 40 µM,[21],21%
same,Activity,[23],inactive
same,Activity,[2],Active
CCNC(=O)NCCCCCCCCCCCCCCCCCC(=O)O,inhibition,[27],inactive
same,Activity,[28],inactive
same,Activity,[3],72%
same,inhibition,[29],inactive
same,inhibition,[30],Active
same,Activity,[31],inactive
same,inhibition at 40 µM,[10],9%
same,inhibition,[32],inactive
same,Activity,[13],6%
same,Activity,[16],inactive
same,Activity,[20],inactive
same,inhibition at 40 µM,[21],21%
same,Activity,[23],inactive
same,Activity,[2],Active
CCCCNC(=O)NCCCCCCCCCCCCCCCC(=O)O,Activity,[3],inactive
same,Activity,[2],Active
CCCCCCCC[C@@H]1O[C@@H]1CCCCCCCCCC(=O)O (relative stereo),Activity,[33],inactive
same,Activity,[34],Active
same,Activity,[2],inactive
CCCCC[C@@H]1O[C@@H]1CCCCCCCCCCCCC(=O)O (relative stereo),Activity,[33],inactive
same,Activity,[2],inactive
CC(C)(C)NC(=O)NCCCCCCCCCCCCCCCC(=O)O,Activity,[3],inactive
same,Activity,[2],Active
CCNC(=O)NCCCCCCCCCCCCCCCC(=O)O,inhibition,[27],inactive
same,Activity,[28],inactive
same,Activity,[3],72%
same,inhibition,[29],inactive
same,inhibition,[30],Active
same,Activity,[31],inactive
same,inhibition at 40 µM,[10],9%
same,Activity,[11],8.4%
same,inhibition,[32],inactive
same,Activity,[13],6%
same,Activity,[16],inactive
same,Activity,[18],82.6%
same,Activity,[19],7.3%
same,Activity,[20],inactive
same,inhibition at 40 µM,[21],21%
same,Activity,[22],1.6%
same,Activity,[23],inactive
same,Activity,[2],Active
CC[C@H]1O[C@H]1CCCCCCCCCCCCCCCCC(=O)O (relative stereo),inhibition,[5],inactive
same,inhibition,[8],Active
same,inhibition,[9],Active
same,inhibition at 40 µM,[10],30%
same,Activity,[12],inactive
same,Activity,[13],12%
same,inhibition,[14],Active
same,Activity,[16],24%
same,Activity,[20],Active
same,inhibition at 40 µM,[21],33%
same,fold change (FC),[23],5
same,Activity,[24],inactive
same,Activity,[2],Active
CC[C@@H]1O[C@@H]1CCCCCCCCCCCCCCCCCC(=O)O (relative stereo),inhibition,[5],inactive
same,inhibition,[8],Active
same,inhibition,[9],Active
same,inhibition at 40 µM,[10],19%
same,Activity,[12],inactive
same,Activity,[13],15%
same,inhibition,[14],Active
same,Activity,[16],47%
same,Activity,[20],Active
same,inhibition at 40 µM,[21],42%
same,Activity,[23],inactive
same,Activity,[24],inactive
same,Activity,[2],inactive
